In the assay the test system is poly(dA)•2poly(dT). Put plainly: UV denaturation, triplex transition. In kind it is binding.

On to `c1cc2ccc3cccc4ccc(c1)c2c34` [Compound 5, reference compound], for which the “stabilization of DNA triplex” value is “does not stabilize”.

The values are drawn from PMC3641831 (Biochemistry, 2010).
